From US20240059691A1 (KALVISTA PHARMACEUTICALS LIMITED, priority 2020, published 2024)

Assays:
Human Factor XIIa = Human Factor XIIa (Homo sapiens (Human), UniProt P00748); assay: Determination of FXIIa inhibition (fluorogenic substrate H-DPro-Phe-Arg-AFC, IC50 assay); format: biochemical; settings: substrate H-DPro-Phe-Arg-AFC at Km, 25° C.; class scale A-G
How it was run: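 IC50 derived from % remaining activity, taken as the linear fluorescence rate over a 5 min read at 25° C. Substrate H-DPro-Phe-Arg-AFC was used at its Km (Michaelis-Menten) with human FXIIa and serial compound dilutions, 25° C.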

Plasma Kallikrein = Plasma Kallikrein (Homo sapiens (Human), UniProt P03952); assay: Determination of related protease inhibition: Plasma Kallikrein (fluorogenic substrate at Km); format: biochemical; settings: 25° C., read-out: IC50 (human PKal)
Chain of Plasma Kallikrein (P03952 391-638): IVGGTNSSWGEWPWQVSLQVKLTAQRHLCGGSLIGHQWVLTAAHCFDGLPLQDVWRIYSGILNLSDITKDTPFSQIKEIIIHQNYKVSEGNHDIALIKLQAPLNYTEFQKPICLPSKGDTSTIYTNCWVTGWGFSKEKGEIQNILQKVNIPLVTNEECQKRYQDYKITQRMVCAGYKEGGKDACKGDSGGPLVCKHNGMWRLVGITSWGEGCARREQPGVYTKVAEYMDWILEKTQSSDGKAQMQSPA
Chain of Plasma Kallikrein (P03952 20-390 partner): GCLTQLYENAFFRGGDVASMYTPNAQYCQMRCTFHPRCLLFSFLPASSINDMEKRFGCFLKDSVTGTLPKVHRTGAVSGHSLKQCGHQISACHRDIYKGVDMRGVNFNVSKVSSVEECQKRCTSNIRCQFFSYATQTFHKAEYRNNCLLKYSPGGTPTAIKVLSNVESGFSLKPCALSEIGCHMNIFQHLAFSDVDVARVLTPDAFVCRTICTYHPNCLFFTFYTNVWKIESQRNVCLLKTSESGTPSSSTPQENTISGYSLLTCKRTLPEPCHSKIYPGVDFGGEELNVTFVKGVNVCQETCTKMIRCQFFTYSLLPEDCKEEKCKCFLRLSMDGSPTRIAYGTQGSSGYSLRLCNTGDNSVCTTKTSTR
How it was run: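 IC50 values derive from the linear rate of fluorescence increase, normalised to uninhibited enzyme as 100% activity. Each human protease was run against its fluorogenic substrate at Km concentration with varying compound levels, with product fluorescence followed over 5 min at 25 °C.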

Chain of Human Factor XIIa (P00748 373-615): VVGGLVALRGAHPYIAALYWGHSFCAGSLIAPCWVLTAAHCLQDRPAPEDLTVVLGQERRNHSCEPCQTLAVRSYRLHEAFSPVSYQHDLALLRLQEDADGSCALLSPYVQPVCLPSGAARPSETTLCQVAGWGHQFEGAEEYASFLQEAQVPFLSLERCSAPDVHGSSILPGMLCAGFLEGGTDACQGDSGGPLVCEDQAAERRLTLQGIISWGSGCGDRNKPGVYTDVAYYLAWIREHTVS

IC50 (Human Factor XIIa) [µM]	IC50 (Plasma Kallikrein) [µM]	SMILES
3 to 10	> 40	Nc1ncc(Cl)c2cc(NCc3ccc(N4CCn5ncc(O)c5C4)nc3)ccc12 [Example 1267, 5-(5-(((1-amino-4-chloroisoquinolin-6-yl)amino)methyl)pyridin-2-yl)-4,5,6,7-tetrahydropyrazolo[1,5-a]pyrazin-3-ol]
10 to 40	> 100	CN1CCC(COc2cc(CNc3ccnc4[nH]ccc34)ccn2)CC1 [Example 4459, N-((2-((1-methylpiperidin-4-yl)methoxy)pyridin-4-yl)methyl)-1H-pyrrolo[2,3-b]pyridin-4-amine]
0.3 to 1	> 40	FC(F)(F)c1nnc2n1CCN(c1ccc(CNc3ccnc4[nH]c(Cl)cc34)cn1)C2 [Example 1280, 2-chloro-N-((6-(3-(trifluoromethyl)-5,6-dihydro-[1,2,4]triazolo[4,3-a]pyrazin-7(8H)-yl)pyridin-3-yl)methyl)-1H-pyrrolo[2,3-b]pyridin-4-amine]
0.1 to 0.3	1 to 3	CC(C)N1CCC(OCc2ccc(CNc3ccc4c(N)nccc4c3)c(F)c2)CC1 [Example 2216, 6-N-[(2-fluoro-4-{[(1-isopropylpiperidin-4-yl)oxy]methyl}phenyl)methyl]isoquinoline-1,6-diamine]
3 to 10	> 40	Nc1nccc2c(NCc3ccc(N4CCn5ncc(O)c5C4)nc3)cccc12 [Example 1312, 5-(5-(((1-aminoisoquinolin-5-yl)amino)methyl)pyridin-2-yl)-4,5,6,7-tetrahydropyrazolo[1,5-a]pyrazin-3-ol]
3 to 10	> 40	FC(F)(F)c1nnc2n1CCN(c1ccc(CNc3ccc4cnccc4c3)cn1)C2 [Example 1283, N-((6-(3-(trifluoromethyl)-5,6-dihydro-[1,2,4]triazolo[4,3-a]pyrazin-7(8H)-yl)pyridin-3-yl)methyl)isoquinolin-6-amine]
1 to 3	> 4	Nc1ncc(Cl)c2cc(NCc3ccnc(NCCC(=O)N4CCCC4)c3)ccc12 [Example 4428, 3-[(4-{[(1-amino-4-chloroisoquinolin-6-yl)amino]methyl}pyridin-2-yl)amino]-1-(pyrrolidin-1-yl)propan-1-one]
3 to 10	> 40	CN1CCC(COc2cc(CNc3cccc4c(N)ncc(F)c34)ccn2)CC1 [Example 4461, 4-fluoro-N5-((2-((1-methylpiperidin-4-yl)methoxy)pyridin-4-yl)methyl)isoquinoline-1,5-diamine]
10 to 40	> 40	CN1CCN(c2cc(CNc3ccc4c(N)ncc(Cl)c4c3)ccn2)CC1 [Example 4427, 4-chloro-6-N-{[2-(4-methylpiperazin-1-yl)pyridin-4-yl]methyl}isoquinoline-1,6-diamine]

The next lines start with the molecule.

SMILES	IC50 (Human Factor XIIa) [µM]	IC50 (Plasma Kallikrein) [µM]
CN1CCC(CNc2ccc(CNc3ccncc3)cn2)CC1 [Example 1258, N-((1-methylpiperidin-4-yl)methyl)-5-((pyridin-4-ylamino)methyl)pyridin-2-amine]	10 to 40	> 40
Nc1ncc(Cl)c2cc(NCc3ccc(NCC4CCn5ccnc5C4)nc3)ccc12 (stereo not drawn) [Example 1044, 4-Chloro-N6-[[6-(5,6,7,8-tetrahydroimidazo[1,2-a]pyridin-7-ylmethylamino)-3-pyridyl]methyl]isoquinoline-1,6-diamine]	0.1 to 0.3	3 to 10
CNc1cc(NCc2ccc(NCC3CCN(C)CC3)nc2)ccn1 [Example 1219, N2-Methyl-N4-((6-(((1-methylpiperidin-4-yl)methyl)amino)pyridin-3-yl)methyl)pyridine-2,4-diamine]	3 to 10	> 100
CN1CCC(Oc2ccc(CNc3cnc4[nH]cc(Cl)c4c3)cc2)CC1 [Example 1004, 3-Chloro-N-(4-((1-methylpiperidin-4-yl)oxy)benzyl)-1H-pyrrolo[2,3-b]pyridin-5-amine]	10 to 40	> 40
CC(C)(O)c1cn2c(n1)CN(c1ccc(CNc3cccc4c(N)nccc34)cn1)CC2 [Example 1163, 2-(7-(5-(((1-aminoisoquinolin-5-yl)amino)methyl)pyridin-2-yl)-5,6,7,8-tetrahydroimidazo[1,2-a]pyrazin-2-yl)propan-2-ol]	3 to 10	> 40
CN1CCC(CNc2ccc(CNc3ccc4c(N)ncc(F)c4c3)cn2)CC1 [Example 1195, 4-fluoro-N6-((6-(((1-methylpiperidin-4-yl)methyl)amino)pyridin-3-yl)methyl)isoquinoline-1,6-diamine]	0.1 to 0.3	3 to 10
CN1CCC(CNc2ccc(CNc3ccc4c(N)ncc(Cl)c4c3)cn2)CC1 [Example 1193, 4-chloro-N6-((6-(((1-methylpiperidin-4-yl)methyl)amino)pyridin-3-yl)methyl)isoquinoline-1,6-diamine]	0.1 to 0.3	3 to 10
Nc1ncc(Cl)c2cc(NCc3ccc(N4CCn5ccnc5C4)nc3)ccc12 [Example 1129, 4-chloro-6-N-[(6-{5H,6H,8H-imidazo[1,2-a]pyrazin-7-yl}pyridin-3-yl)methyl]isoquinoline-1,6-diamine]	3 to 10	> 40
Cc1cc2c(NCc3ccc(NCC4CCN(C)CC4)nc3)cncc2[nH]1 [Example 1232, 2-Methyl-N-((6-(((1-methylpiperidin-4-yl)methyl)amino)pyridin-3-yl)methyl)-1H-pyrrolo[2,3-c]pyridin-4-amine]	0.3 to 1	10 to 40
CN1CCC(CNc2ccc(CNc3ccnc4[nH]c(C(N)=O)cc34)cn2)CC1 [Example 1252, 4-(((6-(((1-methylpiperidin-4-yl)methyl)amino)pyridin-3-yl)methyl)amino)-1H-pyrrolo[2,3-b]pyridine-2-carboxamide]	10 to 40	> 40
CN1CCC(CNc2ccc(CNc3cc(C(=O)O)nc4[nH]ccc34)cn2)CC1 [Example 1263, 4-(((6-(((1-methylpiperidin-4-yl)methyl)amino)pyridin-3-yl)methyl)amino)-1H-pyrrolo [2,3-b]pyridine-6-carboxylic acid]	10 to 40	> 40
CC(C)(O)c1cnc2n1CCN(c1ccc(CNc3cccc4c(N)nccc34)cn1)C2 [Example 1167, 2-(7-(5-(((1-aminoisoquinolin-5-yl)amino)methyl)pyridin-2-yl)-5,6,7,8-tetrahydroimidazo[1,2-a]pyrazin-3-yl)propan-2-ol]	3 to 10	> 40
Nc1nccc2c(NCc3ccc(N4CCn5ccnc5C4CO)nc3)cccc12 (stereo not drawn) [Example 1140, (7-(5-(((1-aminoisoquinolin-5-yl)amino)methyl)pyridin-2-yl)-5,6,7,8-tetrahydroimidazo[1,2-a]pyrazin-8-yl)methanol]	3 to 10	> 40
CN1CCC(CNc2ccc(CNc3c(F)cnc4[nH]ccc34)cn2)CC1 [Example 1206, 5-fluoro-N-((6-(((1-methylpiperidin-4-yl)methyl)amino)pyridin-3-yl)methyl)-1H-pyrrolo[2,3-b]pyridin-4-amine]	40 to 100	> 100
CN1CCC(CNc2ccc(CNc3ccc4cncc(N5CCCCC5)c4c3)cn2)CC1 [Example 1198, N-((6-(((1-methylpiperidin-4-yl)methyl)amino)pyridin-3-yl)methyl)-4-(piperidin-1-yl)isoquinolin-6-amine]	40 to 100	> 40
